Laboratory results taken from patent US10808230B2, “Selection methods for genetically-modified T cells” (BOARD OF REGENTS, THE UNIVERSITY OF TEXAS SYSTEM, priority 2015, dated 2020).
“Also recorded” adds a separate entry of the source. Like-named read-outs stand apart in the source and are kept apart here.

Legend:
Type in all cases: cell-based, human
[1] = test system: TCD4, FoxP3; assay: Selection or depletion of TCD4, FoxP3 in PBMC stimulated with anti-CD3/CD28 and IL-2 in presence of drug; details: for Selection of TCD4, FoxP3 in surviving population at lethal dose: freshly derived PBMC, day 7; for Selection or depletion of TCD4, FoxP3, dose dependence: thawed PBMC, 7 days
Method: (§1) Culture Conditions: Acellular stimulation was accomplished as previously described using soluble anti-CD3—30 ng/mL, anti-CD28—100 ng/mL, and human IL-2—50 IU/mL, as previously described. […] Acellular stimulation experiments received addition of toxic drug or treatment on the same day as stimulation.
Cultured T cells were washed in FACS staining solution[95] before surface antibody staining was performed in FACS staining solution with fluorochrome-conjugated antibodies at 4° C. for at least 30 minutes. Intracellular transcription factor and cytokine staining utilized the FoxP3/transcription factor staining buffer set manufacturer's protocol (eBioscience, 00-5523-00), and was performed following surface staining. The BD FACSCalibur (BD Biosciences) analyzed most samples expressing FoxP3. Flow cytometry data analysis utilized FlowJo v 10.0.5 (Tree Star Inc., Ashland, Oreg.). Flow cytometric imaging of cells stained for phosphorylated antigens was accomplished using the ImageStreamX Mark II (Amnis, Seattle, Wash.) with the following protocol; after surface staining, samples were fixed in 100% methanol (Sigma) for 1 hour at 4° C. before washing and staining in FoxP3/transcription factor staining buffer set wash buffer as outlined by the manufacturer's protocol. Analysis of image cytometry data utilized Amnis IDEAS v 6.0.
Drug Selection of TCD4, FoxP3 by MTX Occurs in Part Through Toxicity. In order to determine how MTX contributes to the selection of TCD4, FoxP3, freshly derived PBMC were stimulated with anti-CD3/CD28 antibodies and IL-2 in the presence of cytotoxic drugs or lethal γ-irradiation. […] See Bar-Nun S. et al., Biochimica et biophysica acta 1983, 741(1):123-127. […] See Cao M. et al., International journal of radiation biology 2011, 87(1):71-80.

[2] = test system: Treg; assay: Sorted Treg and Teff treated with drug for 7 days, co-cultured with AaPC to Day 21; details: for Expression of CD25, CTLA-4, or loss of IL-2: Day 21; for Expression of Treg-specific marker LAP: Day 21, early drug treatment
Source text: Healthy donor derived peripheral blood from MDACC Blood Bank, Houston, Tex., was subjected to density gradient centrifugation to isolate mononuclear cells which were either rested in complete media (CM) or frozen as previously outlined. The use of rested or frozen peripheral blood derived mononuclear cells (PBMC) is outlined in each experiment. T cells from PBMC were stimulated using thawed OKT3 antibody-loaded K562 clone #4, an activating and propagating cell (AaPC). See Singh H, et al, PloS one 2013, 8(5). The presence of mycoplasma was tested in AaPC before stimulation of T cells. Cell counting was accomplished by 0.1% Trypan Blue (Sigma-Aldrich, T8154) exclusion using automated cell counting (Nexcelcom, Lawrence, Mass.). Cell Isolation was accomplished using magnetic bead based sorting with the CD4+, CD25+ Regulatory T Cell Isolation Kit following the manufacturer's instructions (Miltenyi Biotec, San Diego, Calif., 130-091-301). Briefly, CD4^+ T cells were negatively selected before sorting one time with anti-CD25 beads was used to differentiate between effector T cells (CD25^neg) and T^reg (CD25^pos).
Sorted Treg Differentiate the Effects of MTX, 5-FU, and G418 on Selection in Bulk PBMC. Magnetic sorting for CD4 and CD25 expressing PBMC yielded a CD4+ CD25+ population that is widely considered to contain Treg, and a CD25neg population of effector T cells (Teff). See Miyara M. et al., Immunity 2009, 30(6):899-911. These populations were treated with the same concentrations of MTX, 5-FU, G418, or no treatment, as above, for the first 7 days of co-culture with AaPC. After this period of time, co-culture continued without drug by stimulating with AaPC every 7 days until Day 21. Cells were assayed at this time for expression of CD25, CTLA-4, LAP, and IL-2, as before. The experimental outline can be seen in FIG. 15A. A [^3H] thymidine incorporation assay was also performed to determine the effect of each drug on the functionality of propagated Treg.

[3] = test system: Teff; assay: [3H] thymidine incorporation suppression assay, treated Treg mixed with untreated Teff; details: 72 hour suppression assay
Method: A thymidine incorporation assay was performed with anti-CD3/CD28 and IL-2 used to stimulate each well containing 2*10^5 viable cells. Varying ratios of effector T cells (Teff) to Treg were combined in each well and all wells were run in triplicate in U-bottom 96 well plates. At 48 hours 1 μCi [^3H] Thymidine (Perkin-Elmer, Waltham, Mass.) was added to each well, and 24 hours later the cells were assessed for radioactivity on a Top Count NXT (Perkin-Elmer). Treg mediated suppression of growth was determined by the following equation: (No Treatment Teff [cpm]−(Treg & No Treatment Teff [cpm]))/No Treatment Teff [cpm].

[4] = test system: PBMC
Method: as §1
Drug Selection of TCD4, FoxP3 by MTX Occurs in Part Through Toxicity. In order to determine how MTX contributes to the selection of TCD4, FoxP3, freshly derived PBMC were stimulated with anti-CD3/CD28 antibodies and IL-2 in the presence of cytotoxic drugs or lethal γ-irradiation. After 7 days there was a significant difference in survival markers Annexin V and 7-AAD in stimulated T cells receiving any cytotoxic insult with stimulation (FIG. 1B-I). The selection of TCD4, FoxP3 was not as consistent as cytotoxicity. […] With the exception of ribosomal elongation inhibitor G418, each cytotoxic treatment appeared to increase the percentage of surviving TCD4, FoxP3. See Bar-Nun S. et al., Biochimica et biophysica acta 1983, 741(1):123-127. […] Without wishing to be bound by theory, this pathway is likely related to the reduced proliferation rate of Treg, and appears to be ribosomally mediated as G418 can inhibit this general trend of increasing TCD4, FoxP3 percentage. See Cao M. et al., International journal of radiation biology 2011, 87(1):71-80.

[5] = test system: TCD4, FoxP3; assay: Depletion of TCD4, FoxP3 in resting, unstimulated PBMC
Source text: Representative flow diagrams of resting PBMC in FIG. 14D—upper panel show the loss in expression of FoxP3 for CD4+ T cells after treatment with G418. […] Thus, […] TCD4, FoxP3 are depleted following treatment with aminoglycoside G418.

[6] = test system: Jurkat; assay: AThyR transgene selection in electroporated Jurkat, eGFP+ viable cells by PI exclusion; details: anti-folate toxicity
Method: The Amaxa Nucleofector® II (Lonza, Allendale, N.J.) was used to electroporate both Jurkat and human PBMC. Electroporation of Jurkat cells utilized a modified buffer (Chicaybam et al., Proceedings of the National Academy of Sciences of the United States of America 2002, 99(6):3400-3405) containing 5 mM KCl, 15 mM MgCl2, 120 mM Na2HPO4/NaH2PO4, pH 7.2, and 50 mM DMSO, where 10^6 Jurkat cells per cuvette were electroporated using program T-14 before immediate transfer to CM. The addition of drug occurred 48 hours after electroporation and cell culture remained undisturbed until sampling for gene expression on days 10-12 post electroporation. Human PBMC electroporation followed a previously described protocol (Rushworth et al., supra). […]
To test the enhanced survival of each AThyR, constructs individually expressing DHFR^FS, TYMS^SS, and NeoR were ligated into the same backbone containing Sleeping Beauty (SB) transposable elements upstream of eGFP (FIG. 1B), eGFP was used to track the predominance of surviving genetically-modified T cells. […] Jurkat were assessed for eGFP expression in viable cells by propidium iodide (PI) exclusion on day 10-12 (FIG. 1C). […] Overall survival and mean fluorescence intensity (MFI) of eGFP are also given in FIG. 2AI and AII, respectively.

Compound | Selection of TCD4, FoxP3 in surviving population at lethal dose [1] | Expression of CD25, CTLA-4, or loss of IL-2 [2] | Expression of Treg-specific marker LAP [2] | Suppression by treated Treg above untreated Treg [3] | Selection or depletion of TCD4, FoxP3, dose dependence [1] | Cytotoxicity, dose dependence [4] | other results
O=c1[nH]cc(F)c(=O)[nH]1 [5-FU, 5-fluorouracil] | Significant increases | no significant difference | significantly increased | improved suppression | – | – | –
CN[C@@H]1[C@@H](O)[C@@H](O[C@@H]2[C@@H](O)[C@H](O[C@H]3O[C@H]([C@@H](C)O)[C@@H](O)[C@H](O)[C@H]3N)[C@@H](N)C[C@H]2N)OC[C@]1(C)O [G418] | depleted | – | – | – | significantly depleted TCD4, FoxP3 at two moderate drug doses; also recorded: Depletion | – | Cytotoxicity, dose dependence ([4]; thawed PBMC, 7 days): significantly cytotoxic at all doses tested; Depletion of TCD4, FoxP3 under resting conditions ([5]; PBMC rested in CM 9 days): Significant depletion; Depletion of CD4+, FoxP3+, Ki-67+ cells ([5]; resting PBMC, 9 days): significant G418 mediated depletion; Depletion of CD4+, FoxP3+, Ki-67neg cells ([5]; resting PBMC, 9 days): not significantly depleted; Surviving TCD4, FoxP3 in the Treg compartment ([2]; Day 21, drug for first 7 days): persistently decreased surviving Treg; Treg markers (CD25, CTLA-4, decreased IL-2, LAP) with FoxP3 expression ([2]; after stimulation on day 21): decreased
Cc1c(N)nc([C@H](CC(N)=O)NC[C@H](N)C(N)=O)nc1C(=O)N[C@H](C(=O)N[C@H](C)[C@@H](O)[C@H](C)C(=O)N[C@H](C(=O)NCCC1=N[C@@H](c2nc(C(=O)NCCCCN=C(N)N)cs2)CS1)[C@@H](C)O)[C@@H](O[C@@H]1O[C@@H](CO)[C@@H](O)[C@H](O)[C@@H]1O[C@H]1O[C@H](CO)[C@@H](O)[C@H](OC(N)=O)[C@@H]1O)c1cnc[nH]1 [Zeocin] | – | – | – | – | insignificant | – | –
CN(Cc1cnc2nc(N)nc(N)c2n1)c1ccc(C(=O)N[C@@H](CCC(=O)O)C(=O)O)cc1 [MTX, methotrexate] | Significant increases | no significant difference | significantly increased | improved suppression | significant elevation of TCD4, FoxP3, at lower doses | cytotoxic at all doses tested | Relative toxicity to T cells [6]: more toxic to T cells than Pem
CO[C@H]1C[C@@H]2CC[C@@H](C)[C@@](O)(O2)C(=O)C(=O)N2CCCC[C@H]2C(=O)O[C@H]([C@H](C)C[C@@H]2CC[C@@H](O)[C@H](OC)C2)CC(=O)[C@H](C)/C=C(\C)[C@@H](O)[C@@H](OC)C(=O)[C@H](C)C[C@H](C)/C=C/C=C/C=C/1C [Rapamycin] | – | – | – | – | – | only occurred at the highest doses | –
gentamicin | – | – | – | – | – | – | Depletion of TCD4, FoxP3 in resting PBMC ([5]; 7 days): depletion of TCD4, FoxP3
